# Legend:
# [1] = tested on: PM10D-induced airway inflammation model; assay: FACS analysis of immune cells in bronchoalveolar lavage fluid (BALF); type: in vivo, Balb/c mice; conditions: BAL, ATG-E1 4×10^9 CFU/mouse, Dexa 3 mg/kg, orally daily for 10 days
# Protocol: (§1) There were 8 Balb/c mice (male, 8 weeks old) per group, and all groups except a normal group were injected with a fine dust mixture using the Intra-Nazal-Trachea (INT) injection method described in literatures. The fine dust mixture contained diesel exhaust particles (DEP) (PM10 (Sigma)) and 1% (final concentration) of alum. The fine dust mixture was directly injected into the airways and noses of the experimental animals on days 4, 7, and 10 of the experiment. (Lim et al., Free Radic Biol Med. 25 (6), 635-644 (1998), Shin et al., Korean J. Mediclinal Crop Sci 27 (3), 218-231 (2019)). […] An autopsy was performed on the 11th day after the start of the experiment, and bronchoalveloar lavage fluid (BALF) and lung tissue were collected.
# Immune cell profiles (lymphocytes, neutrophils, macrophages, T cell subtypes, Gr-1^+CD11b^+, etc.) were measured by fluorescence-activated cell sorting (FACS) analysis of bronchoalveolar lavage fluid isolated from each individual after the end of the experiment in Example 3-1.
# [2] = tested on: PM10D-induced airway inflammation model; assay: FACS analysis of immune cells in cells isolated from lung tissue; type: in vivo, Balb/c mice; conditions: ATG-E1 4×10^9 CFU/mouse, Dexa 3 mg/kg, orally daily for 10 days
# Protocol: as §1
# Immune cell profiles (lymphocytes, neutrophils, macrophages, T cell subtypes, Gr-1^+CD11b^+, etc.) were measured by fluorescence-activated cell sorting (FACS) analysis of […] lung tissue of each individual after the end of the experiment in Example 3-1.
structure (smiles),measurement,setting,value
"C[C@@H]1C[C@H]2[C@@H]3CCC4=CC(=O)C=C[C@]4(C)[C@@]3(F)[C@@H](O)C[C@]2(C)[C@@]1(O)C(=O)CO [Dexa, dexamethasone]",CD4^+ (Absolute No.),"[1]; NC 0.07, CTL 5.26",3.43 ± 0.58 ×10^7 cells
same,Lymphocytes (Absolute No.),"[1]; NC 0.08, CTL 0.82",0.96 ± 0.53 ×10^7 cells
same,CD4^+CD69^+ (Absolute No.),"[1]; NC 0.08, CTL 1.73",1.40 ± 0.19 ×10^7 cells
same,CD8^+ (Absolute No.),"[1]; NC 0.14, CTL 3.72",2.80 ± 0.71 ×10^7 cells
same,Gr-1^+CD11b^+ (Absolute No.),"[1]; NC 0.34, CTL 1.62",1.38 ± 0.12 ×10^7 cells
same,CD62L^−CD44^+high (Absolute No.),"[1]; NC 0.99, CTL 6.40",5.95 ± 0.85 ×10^7 cells
same,Macrophage (Absolute No.),"[1]; NC 1.18, CTL 1.82",2.29 ± 0.28 ×10^7 cells
same,Neutrophils (Absolute No.),"[1]; NC 3.59, CTL 15.09",15.01 ± 2.14 ×10^7 cells
same,Gr-1^+CD11b^+ (Absolute No.),"[2]; NC 0.17, CTL 1.07",0.60 ± 0.08 ×10^7cells
same,CD4^+CD69^+ (Absolute No.),"[2]; NC 0.20, CTL 3.01",0.29 ± 0.07 ×10^7 cells
same,CD21/35 + B220^+ (Absolute No.),"[2]; NC 0.27, CTL 3.40",1.35 ± 0.32 ×10^7 cells
same,CD62L^−CD44^+high (Absolute No.),"[2]; NC 0.35, CTL 2.53",1.27 ± 0.15 ×10^7 cells
same,CD8^+ (Absolute No.),"[2]; NC 1.11, CTL 3.46",1.92 ± 0.18 ×10^7 cells
same,Eosinophils (Absolute No.),"[2]; NC 1.56, CTL 6.87",3.41 ± 1.06 ×10^7 cells
same,CD4^+ (Absolute No.),"[2]; NC 1.97, CTL 6.13",3.32 ± 0.42 ×10^7cells
same,Lymphocytes (Absolute No.),"[2]; NC 2.60, CTL 3.17",9.34 ± 6.56 ×10^7 cells
same,Neutrophils (Absolute No.),"[2]; NC 3.03, CTL 12.04",3.41 ± 0.83 ×10^7 cells

# From patent US12667598B2, “Lactobacillus paracasei ATG-EI strain or composition comprising same for preventing or treating respiratory disease” (priority 2021, dated 2026)
